Values after ≈ are worked out from the molar mass of the structure shown.
What was measured:
Format in all cases: functional
[1] = system: Mycobacterium tuberculosis; experiment: In vitro anti-mycobacterial activity against ethambutol resistant Mycobacterium tuberculosis ATCC 35837 was determined
[2] = system: Mycobacterium tuberculosis; experiment: In vitro anti-mycobacterial activity against streptomycin resistant Mycobacterium tuberculosis ATCC 35820 was determined
[3] = system: Mycobacterium tuberculosis; experiment: In vitro anti-mycobacterial activity against streptomycin resistant Mycobacterium tuberculosis ATCC 35820 determined by the MTT method
[4] = system: Mycobacterium tuberculosis; experiment: In vitro anti-mycobacterial activity against pirazynamide resistant Mycobacterium tuberculosis ATCC 35828 determined by the MTT method
[5] = system: Mycobacterium tuberculosis; experiment: In vitro anti-mycobacterial activity against pirazynamide resistant Mycobacterium tuberculosis ATCC 35828 was determined
[6] = system: Mycobacterium tuberculosis; experiment: In vitro anti-mycobacterial activity against ethambutol resistant Mycobacterium tuberculosis ATCC 35837 determined by the MTT method

Structure (SMILES)	MIC50 [1]	MIC50 [2]	MIC90 [3]	MIC90 [4]	MIC50 [5]	MIC90 [6]
CC(=O)NC[C@H]1CN(c2ccn(-c3ccc(N4CCOCC4)c(F)c3)c2)C(=O)O1	63.5 µM (≈ 25.6 µg/mL)	4.9 µM (≈ 1.97 µg/mL)	> 100 µM	> 100 µM	> 100 µM	
CC(=O)NC[C@H]1CN(c2ccc(N3CCSCC3)c(F)c2)C(=O)O1 [SUTEZOLID]	0.06 µM (≈ 0.0212 µg/mL)	5.6 µM (≈ 1.98 µg/mL)	0.4 µM (≈ 0.141 µg/mL)	0.7 µM (≈ 0.247 µg/mL)	0.1 µM (≈ 0.0353 µg/mL)	0.3 µM (≈ 0.106 µg/mL)
CC(=O)NC[C@H]1CN(c2ccn(-c3ccc(F)cc3)c2)C(=O)O1	13.5 µM (≈ 4.28 µg/mL)	0.8 µM (≈ 0.254 µg/mL)	39.9 µM (≈ 12.7 µg/mL)	73.7 µM (≈ 23.4 µg/mL)	21.5 µM (≈ 6.82 µg/mL)	56.6 µM (≈ 18 µg/mL)
NNC(=O)c1ccncc1 [ISONIAZID]	0.2 µM (≈ 0.0274 µg/mL)	1.3 µM (≈ 0.178 µg/mL)	> 100 µM	> 100 µM	0.1 µM (≈ 0.0137 µg/mL)	13 µM (≈ 1.78 µg/mL)
CC(=O)NC[C@H]1CN(c2ccn(-c3ccccc3)c2)C(=O)O1	23.8 µM (≈ 7.12 µg/mL)	5.6 µM (≈ 1.68 µg/mL)	≥ 100 µM	> 100 µM	50.3 µM (≈ 15.1 µg/mL)	100 µM (≈ 29.9 µg/mL)
CC(=O)NC[C@H]1CN(c2ccn(-c3ccccc3F)c2)C(=O)O1	7 µM (≈ 2.22 µg/mL)	1.1 µM (≈ 0.349 µg/mL)	45 µM (≈ 14.3 µg/mL)	58.7 µM (≈ 18.6 µg/mL)	10 µM (≈ 3.17 µg/mL)	23.9 µM (≈ 7.58 µg/mL)
CC(=O)NC[C@H]1CN(c2ccn(-c3cccc(F)c3)c2)C(=O)O1	7 µM (≈ 2.22 µg/mL)	0.9 µM (≈ 0.286 µg/mL)	> 100 µM	63.9 µM (≈ 20.3 µg/mL)	18.4 µM (≈ 5.84 µg/mL)	24.9 µM (≈ 7.9 µg/mL)
CC(=O)NC[C@H]1CN(c2ccn(N3CCOCC3)c2)C(=O)O1	> 100 µM	> 100 µM			> 100 µM	
